# Publication PMC11507441, “Oilseed Cakes: A Promising Source of Antioxidant, and Anti-Inflammatory Agents—Insights from Lactuca sativa” (International Journal of Molecular Sciences, 2024)
# Legend:
# IL-1β = IL-1β in rat paw tissue homogenate (carrageenan model); assay type: in vivo; conditions: doses of 20 and 40 mg/kg; compared to the vehicle control group
# Experimental: (§1) The levels of inflammatory mediators (IL-1β, TNF-α, and PGE2) in rat paw tissue homogenate were measured using the following Kits: Rat TNF-α (Tumor Necrosis Factor Alpha) ELISA Kit from Elabscience® Company, Houston, TX, USA, Interleukin 1 Beta (IL-1b) Organism Species: Rattus norvegicus (Rat) from Cloud Clone Crop Company and Rat PGE2 (Prostaglandin E2) ELISA Kit from Fine test® company Hubei, China. In addition, oxidative stress parameters in rat paw tissue homogenate were measured using superoxide dismutase, glutathione peroxidase, and catalase Kits from the Biodiagnostic company, Birmingham, UK.
# (§2) Rats were slaughtered, and their paw tissues were gathered and weighed five hours after the carrageenan was administered. The tissues underwent processing after being fixed in 10% formalin. Rat paw tissue was homogenized, and its oxidative stress indices (SOD, CAT, and GPx) as well as the levels of inflammatory mediators (IL-1β, TNF-α, and PGE2) were measured.
# [1] = Cytotoxic activity (MTT assay), normal cells; assay type: cell-based; conditions: human, WI-38 normal lung fibroblast cells; MTT; normal cells; read-out: In Vitro Cytotoxicity IC50 (µg/mL) WI-38
# Experimental: The HPLC was performed in the Institute for Plant Biology, TU Braunschweig, using a Young Lin quaternary pump, vacuum degasser, column oven (40 °C), diode array detector (YL9160 PDA), and a Midas Spark Holland autosampler. UV spectra (λ max) were measured in the central laboratory of the Faculty of Pharmaceutical Science at Mansoura University using spectroscopic methanol with an ultraviolet-visible spectrophotometer (Shimadzu 1601 PC, version TCC-240A, Kyoto, Japan). The NMR unit of Mansoura University’s Faculty of Pharmacy obtained nuclear magnetic resonance spectra (^1H-NMR, ^13C-NMR, DEPT-Q, APT, HSQC, and HMBC) using a Bruker DRX 600 NMR spectrometer (600 and 150 MHz for ^1H and ^13C-NMR, respectively) and with the Bruker Corporation Avance III 400 spectrometer, which measures ^1H and ^13C-NMR at 400 and 100 MHz, respectively. The types of solvents that are used are CDCl3, CD3OD, and DMSO-d6. For normal phase chromatography, silica gel G 60–230 mesh (Merck, Darmstadt, Germany) was packed using a wet or dry method in the specified solvent. The purchase of Normal Human lung fibroblast (WI-38), hepatic cancer cell lines (HePG-2), and mammary gland (MCF-7) cell lines from ATCC was made possible by the Holding firm for biological goods and vaccines (VACSERA), which is based in Cairo, Egypt.
# Using the MTT test, the inhibitory effects of substances on cell growth were ascertained using the cell lines compared to normal lung fibroblast cells (WI-38). The selectivity index was calculated via the Selectivity index (SI) equation: SI equals IC50 normal/IC50 cancer.
# [2] = system: IL-6 production in TNF-a-stimulated MG-63 cells; conditions: cited from earlier work
# [3] = system: carrageenan-induced paw oedema; experiment: Carrageenan-induced paw oedema; assay type: in vivo; conditions: rat
# Experimental: Adult albino rats 180-220 g of both sexes used in the investigation were acquired from the Mansoura University Faculty of Pharmacy's Animal House. Standard laboratory diet and water were provided, and they were housed in cages maintained at a constant temperature of 22 ± 2 °C. The Animal Care and Use Committee (MU-ACUC) of Mansoura University, Egypt, has approved all procedures involving animals with code number: […] Throughout the experiment, medications and extracts were given orally in doses of 1 mL/100 g of the rat's body weight after being solubilized in carboxymethyl cellulose (CMC) in order to create a suspension formula. In this test, rats were divided into six groups, with each group containing 5 animals. Group-1: […] Group-2: Positive control (carrageenan-induced oedema, Sigma (St. Louis, MO, USA)) without any treatment. […] Group-4: […] extract of Lactuca sativa was administered at a 2 g/kg dose. Group-5: Compound (1) is administered at a dose of 20 mg/kg. Group-6: Compound (1) at a dose of 40 mg/kg. Group-7: Combination of standard and compound (1) at doses of (10 + 20) mg/kg, respectively. […] Using a digital vernier calliper, the swelling of the paw that had been injected with carrageenan was measured prior to injection as well as 1, 2, 3, 4, and 5 h following the treatment's induction. The percentage inhibition of oedema in the test animals treated with the extract compared to the carrageenan control group was used to calculate the anti-inflammatory activity. The formula […] was used to calculate the percentage inhibition of inflammation, where “dt” represents the difference in paw volume in the drug-treated group and “dc” represents the difference in paw volume relative to the control group. Moreover, “I” represents the suppression of inflammation.
# P. aeruginosa = experiment: Antimicrobial screening, zone of inhibition; assay type: cell-based; conditions: Table 1
# Experimental: The procedure was performed according to Stylianakis et al.. A comparison of the extract’s zone of inhibition to that of a reference antibiotic’s activity index was determined using the following equation:Activity index = (the inhibition zone of extract/the inhibition zone of the standard) × 100
# CAT = CAT activity in rat paw tissue homogenate (carrageenan model); assay type: in vivo; conditions: for CAT (U/gm Tissue): paw tissue 5 h after carrageenan
# Experimental: as §1, §2
compound,measurement,setting,value
"NC(CO)C(O)c1ccc2c(c1)OCO2 (stereo not shown) [Compound 1, 1,3-propanediol-2-amino-1-(3′,4′-methylenedioxyphenyl)]",IL-1β level in paw tissue,IL-1β,significant reduction
same,IC50,[1],61.7 ± 3.4 µg/mL
same,inhibition of IL-6 production,[2],strong inhibitory
same,% Inhibition (%I) of paw oedema,"[3]; 1 h, dose 20 mg/kg oral",10.25%
same,Increase in Paw Oedema,"[3]; 1 h, dose 20 mg/kg oral",1.05 ± 0.20 mL
same,% Inhibition (%I) of paw oedema,"[3]; 1 h, dose 40 mg/kg oral",16.32%
same,Increase in Paw Oedema,"[3]; 1 h, dose 40 mg/kg oral",0.77 ± 0.28 mL
same,% Inhibition (%I) of paw oedema,"[3]; 2 h, dose 20 mg/kg oral",23.51%
same,Increase in Paw Oedema,"[3]; 2 h, dose 20 mg/kg oral",1.81 ± 0.44 mL
same,% Inhibition (%I) of paw oedema,"[3]; 2 h, dose 40 mg/kg oral",27.07%
same,Increase in Paw Oedema,"[3]; 2 h, dose 40 mg/kg oral",1.59 ± 0.22 mL
same,% Inhibition (%I) of paw oedema,"[3]; 3 h, dose 20 mg/kg oral",23.77%
same,Increase in Paw Oedema,"[3]; 3 h, dose 20 mg/kg oral",2.26 ± 0.28 mL
same,% Inhibition (%I) of paw oedema,"[3]; 3 h, dose 40 mg/kg oral",26.1%
same,Increase in Paw Oedema,"[3]; 3 h, dose 40 mg/kg oral",2.11 ± 0.29 mL
same,% Inhibition (%I) of paw oedema,"[3]; 4 h, dose 20 mg/kg oral",45.36%
same,Increase in Paw Oedema,"[3]; 4 h, dose 20 mg/kg oral",2.18 ± 0.74 mL
same,% Inhibition (%I) of paw oedema,"[3]; 4 h, dose 40 mg/kg oral",55.39%
same,Increase in Paw Oedema,"[3]; 4 h, dose 40 mg/kg oral",1.78 ± 0.45 mL
same,% Inhibition (%I) of paw oedema,"[3]; 5 h, dose 20 mg/kg oral",57.63%
same,Increase in Paw Oedema,"[3]; 5 h, dose 20 mg/kg oral",1.75 ± 0.46 mL
same,% Inhibition (%I) of paw oedema,"[3]; 5 h, dose 40 mg/kg oral",63.92%
same,Increase in Paw Oedema,"[3]; 5 h, dose 40 mg/kg oral",1.49 ± 0.49 mL
same,zone of inhibition at 1000 µg/mL,"P. aeruginosa; Pseudomonas aeruginosa, isolated compounds 1 mg/mL, read-out: P. aeruginosa Diameter of Inhibition Zone (mm)",3.8 ± 0.2 mm
same,P. aeruginosa %Activity Index,"P. aeruginosa; 1 mg/mL, relative to ciprofloxacin",16.5%
same,CAT activity restored,"CAT; 40 mg/kg, compared to the control group",72.08%
same,CAT (U/gm Tissue),CAT; 20 mg/kg,1.50 ± 0.19 U/gm Tissue
same,CAT (U/gm Tissue),CAT; 40 mg/kg,2.04 ± 0.26 U/gm Tissue
